Entries after “also recorded” stand apart in the source; their conditions may differ. Where no end group is shown, it is not given here. TMR = tetramethylrhodamine dye
T1: TMR-E2F2^TD peptide (human)
T1 chain: {TMR}-QDDYLWGLEAGEGISDLFD


Legend:
[1] = system: Rb; details: LxCxE-like peptides; cited from earlier work
[2] = target: phosphorylated Rb^NP–E2F^TMR (Homo sapiens, UniProt P06400, DEL245-267/DEL582-642); assay: FP EC50 measurement of Rb activation; type: biochemical; details: 20 nM phosphorylated Rb^NP, 10 nM E2F^TMR, Figure 3b
[3] = target: E2F2 transactivation domain peptide (E2FTMR) 409-428 (UniProt Q14209); assay: fluorescence polarization, single concentration, 384-well; details: reference: unphosphorylated RbNP; sites T356,T373
[4] = system: Rb Q736A/K740A docking interface mutant; assay: E2F^TD binding to Rb with mutated docking interface; type: biochemical; details: Supporting Information Figure 3
[5] = target: T1, TMR-E2F2^TD peptide; assay: fluorescence polarisation

| Molecule | affinity for Rb (in words) [1] | effect in the Rb activation assay (in words) [2] | FP ratio [5] | other results |
| --- | --- | --- | --- | --- |
| MEHQLLCCEVETIRRAY [cyclin D] | weak affinity | do not show activity; also recorded: no effect |  |  |
| Rb (retinoblastoma protein; RbNP construct) 55-787 (from UniProt P06400) Cdk2–CycA phosphorylated RbNP |  |  |  | other: FP ratio [3]: weaker; reference ~165 |
| TDLEASLLSFEKLDRAphosSPDLWPE [LIN52] | weak affinity | do not show activity; also recorded: no effect |  |  |
| E7 protein: full length HPV E7 protein (protein) MHGDTPTLHEYMLDLQPETTDLYCYEQLNDSSEEEDEIDGPAGQAEPDRAHYNIVTFCCKCDSTLRLCVQSTHVDIRTLEDLLMGTLGIVCPICSQKP |  |  |  | effect on E2F^TD binding to Rb with mutated docking interface [4]: do not affect E2F^TD binding to Rb |
| phosphorylated Rb^NP (residues 55-787, Δ245-267, Δ582-642, phosphorylated by Cdk2-CycA) (domain or fragment, UniProt P06400 55-787, looked up, quantitative phosphorylation on two sites (the construct contains the two sites T356 and T373)) PDFTALCQKLKIPDHVRERAWLTWEKVSSVDGVLGGYIQKKKELWGICIFIAAVDLDEMSFTFTELQKNIEISVHKFFNLLKEIDTSTKVDNAMSRLLKKYDVLFALFSKLERTCELIYLTQPSSSISTEINSALVLKVSWITFLLAKGEVLQMEDDLVISFQLMLCVLDYFIKLSPPMLLKEPYKTAVIENDTRIIEVLCKEHECNIDEVKNVYFKNFIPFMNSLGLVTSNGLPEVENLSKRYEEIYLKNKDLDARLFLDHDKTLQTDSIDSFETQRTPRKSNLDEEVNVIPPHTPVRTVMNTIQQLMMILNSASDQPSENLISYFNNCTVNPKESILKRVKDIGYIFKEKFAKAVGQGCVEIGSQRYKLGVRLYYRVMESMLKSEEERLSIQNFSKLLNDNIFHMSLLACALEVVMATYSRSTSQNLDSGTDLSFPWILNVLNLKAFDFYKVIESFIKAEGNLTREMIKHLERCEHRIMESLAWLSDSPLFDLIKQSKDREGKSTSLSLFYKKVYRLAYLRLNTLCERLLSEHPELEHIIWTLFQHTLQNEYELMRDRHLDQIMMCSMYGICKVKNIDLKFKIIVTAYKDLPHAVQETFKRVLIKEEEYDSIIVFYNSVFMQRLKTNILQYASTRPPTLSPIPHIPR |  |  | ~60 FP ratio |  |
| unphosphorylated Rb^NP (Rb N-terminal domain and pocket domain, residues 55-787, Δ245-267, Δ582-642) (domain or fragment, UniProt P06400 55-787, looked up) PDFTALCQKLKIPDHVRERAWLTWEKVSSVDGVLGGYIQKKKELWGICIFIAAVDLDEMSFTFTELQKNIEISVHKFFNLLKEIDTSTKVDNAMSRLLKKYDVLFALFSKLERTCELIYLTQPSSSISTEINSALVLKVSWITFLLAKGEVLQMEDDLVISFQLMLCVLDYFIKLSPPMLLKEPYKTAVIENDTRIIEVLCKEHECNIDEVKNVYFKNFIPFMNSLGLVTSNGLPEVENLSKRYEEIYLKNKDLDARLFLDHDKTLQTDSIDSFETQRTPRKSNLDEEVNVIPPHTPVRTVMNTIQQLMMILNSASDQPSENLISYFNNCTVNPKESILKRVKDIGYIFKEKFAKAVGQGCVEIGSQRYKLGVRLYYRVMESMLKSEEERLSIQNFSKLLNDNIFHMSLLACALEVVMATYSRSTSQNLDSGTDLSFPWILNVLNLKAFDFYKVIESFIKAEGNLTREMIKHLERCEHRIMESLAWLSDSPLFDLIKQSKDREGKSTSLSLFYKKVYRLAYLRLNTLCERLLSEHPELEHIIWTLFQHTLQNEYELMRDRHLDQIMMCSMYGICKVKNIDLKFKIIVTAYKDLPHAVQETFKRVLIKEEEYDSIIVFYNSVFMQRLKTNILQYASTRPPTLSPIPHIPR |  |  | ~165 FP ratio |  |
